The source of these data is ChEMBL document CHEMBL3045133, “A 2D image-based method for modeling some c-Src tyrosine kinase inhibitors” (Med Chem Res, 2013).

The experiment concerns the target Proto-oncogene tyrosine-protein kinase Src (Homo sapiens, UniProt P12931). The experiment can be described thus: Inhibition of c-Src kinase (unknown origin).

Sequence of Proto-oncogene tyrosine-protein kinase Src (P12931 2-536 limits assumed): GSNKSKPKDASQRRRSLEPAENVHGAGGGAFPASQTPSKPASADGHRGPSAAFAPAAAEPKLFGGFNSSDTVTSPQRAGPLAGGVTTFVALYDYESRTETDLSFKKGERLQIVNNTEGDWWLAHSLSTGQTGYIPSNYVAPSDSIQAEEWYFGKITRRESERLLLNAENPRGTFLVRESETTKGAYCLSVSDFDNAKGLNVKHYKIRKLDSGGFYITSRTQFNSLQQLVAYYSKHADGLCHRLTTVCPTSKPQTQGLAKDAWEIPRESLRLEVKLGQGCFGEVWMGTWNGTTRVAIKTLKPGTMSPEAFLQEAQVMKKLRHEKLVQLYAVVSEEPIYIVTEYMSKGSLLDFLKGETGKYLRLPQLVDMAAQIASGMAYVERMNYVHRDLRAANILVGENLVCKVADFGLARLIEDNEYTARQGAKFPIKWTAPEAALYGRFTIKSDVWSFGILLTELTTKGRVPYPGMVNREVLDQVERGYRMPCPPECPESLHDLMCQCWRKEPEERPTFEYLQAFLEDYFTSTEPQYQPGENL

As to `Cc1ccccc1-c1cn(-c2ccccc2)c2ncnc(N)c12`, the midpoint of inhibition, the IC50, lay at 6.31 µM.
